Experimental data reported in US12233073B2, “Skin care formulations and skin cancer treatment” (Regents of the University of Minnesota, priority 2017, dated 2025).

Legend:
[1] = test system: nuclear factor kappa B (NF-κB) pathway; test: Cell-based assay of the nuclear factor kappa B (NF-κB) pathway; details: for inhibition at 50 µg/mL / inhibition at 100 µg/mL / inhibition at 10 µg/mL: read-out: % inhibition of NF-κB; for Rating (inhibition of NF-κB): one rating per compound
Procedure: The effect of adding anti-aging and/or anti-wrinkling compounds to the skin care formulation of EXAMPLE 18 on nuclear factor kappa B (NF-κB) mediated-inflammation was evaluated.
A cell-based assay was performed to determine the effective of each of these compounds. The assay involved the effect of each compound on the nuclear factor kappa B (NF-κB) pathway. The inhibition of NF-κB is indicative of a protective effect against aging and wrinkling.

[2] = test system: elastin; test: Induction of elastin; assay type: cell-based; details: for fold induction at 10 µg/mL: final dose 10 μg/ml; for fold induction at 50 µg/mL: final dose 50 μg/ml; for fold induction at 100 µg/mL: final dose 100 μg/ml
Procedure: (§1) Higher elastin and collagen activity is indicative of anti-wrinkling or anti-aging effects. Activation of the antioxidant response element (ARE) pathway was also evaluated. The NF-E2-related factor (Nrf2) is a critical transcription factor in oxidative stress signaling. Nrf2 binds to the ARE and serves as a master regulator in cellular defense pathways. The ARE pathway mediates the transcriptional induction of a battery of genes that help to protect the cells against oxidative damage. Activation of the ARE promoter leads to more endogenous antioxidants and cell detoxification.

[3] = test system: collagen 1A; test: Induction of collagen 1A; assay type: cell-based; details: for fold induction at 10 µg/mL: final dose 10 μg/ml; for fold induction at 50 µg/mL: final dose 50 μg/ml; for fold induction at 100 µg/mL: final dose 100 μg/ml; for Rating (Collagen 1A): second rating in cell
Procedure: as §1

[4] = test system: antioxidant response element (ARE) pathway; test: Activation of the antioxidant response element (ARE) pathway; assay type: cell-based; details: for fold induction at 10 µg/mL: final dose 10 μg/ml; for fold induction at 50 µg/mL: final dose 50 μg/ml; for fold induction at 100 µg/mL: final dose 100 μg/ml; for Rating (ARE): third rating in cell
Procedure: as §1

[5] = test system: UV-induced ROS; test: Inhibition of the production of UV-induced reactive oxygen species (ROS); assay type: cell-based; details: final dose 10 μg/ml; read-out: % inhibition of UV-induced ROS
Procedure: The effect of the compounds of EXAMPLE 20 on inhibition of the production of reactive oxygen species (ROS), which can damage skin cells, was evaluated.

Structure (SMILES): O=c1c(-c2ccc(O)c(O)c2)coc2cc(O)ccc12 [HI-1, 7,3,4′-trihydroxyisoflavone]
- % inhibition of NF-κB ([1]; final dose 10 μg/ml): none
- inhibition at 50 µg/mL ([1]; final dose 50 μg/ml): 14%
- inhibition at 100 µg/mL ([1]; final dose 100 μg/ml): 40%
- Rating (inhibition of NF-κB) [1]: none
- fold induction at 10 µg/mL [2]: 1.5
- fold induction at 50 µg/mL [2]: 2
- fold induction at 100 µg/mL [2]: < 1.3
- fold induction at 10 µg/mL [3]: 1.5
- fold induction at 50 µg/mL [3]: 3
- fold induction at 100 µg/mL [3]: < 1.3
- Rating (Collagen 1A) [3]: **, **, N/A (medium activity (31-55%))
- fold induction at 10 µg/mL [4]: < 1.3
- fold induction at 50 µg/mL [4]: 3
- fold induction at 100 µg/mL [4]: 5
- inhibition at 10 µg/mL [5]: > 70%

Structure (SMILES): O=c1cc(-c2ccc(O)c(O)c2)oc2cc(O)cc(O)c12 [HI-11, luteolin]
- inhibition at 10 µg/mL ([1]; final dose 10 μg/ml): 54%
- inhibition at 50 µg/mL ([1]; final dose 50 μg/ml): > 90%
- inhibition at 100 µg/mL ([1]; final dose 100 μg/ml): > 90%
- Rating (inhibition of NF-κB) [1]: ** (medium activity (31-55%))
- fold induction at 10 µg/mL [2]: 1.8
- fold induction at 50 µg/mL [2]: < 1.3
- fold induction at 100 µg/mL [2]: < 1.3
- fold induction at 10 µg/mL [3]: 2
- fold induction at 50 µg/mL [3]: < 1.3
- fold induction at 100 µg/mL [3]: < 1.3
- Rating (Collagen 1A) [3]: ****, ****, **** (very high activity (>76%))
- fold induction at 10 µg/mL [4]: 1.5
- fold induction at 50 µg/mL [4]: 5
- fold induction at 100 µg/mL [4]: 2
- Rating (ARE) [4]: ****, ****, **** (very high activity (>76%))
- inhibition at 10 µg/mL [5]: > 70%

Structure (SMILES): O=c1c(O)c(-c2ccc(O)cc2)oc2cc(O)ccc12 [HI-7, 3,7,4′-trihydroxyflavone]
- inhibition at 10 µg/mL ([1]; final dose 10 μg/ml): 9%
- inhibition at 50 µg/mL ([1]; final dose 50 μg/ml): 52%
- inhibition at 100 µg/mL ([1]; final dose 100 μg/ml): 66%
- Rating (inhibition of NF-κB) [1]: none
- fold induction at 10 µg/mL [2]: 3
- fold induction at 50 µg/mL [2]: 2
- fold induction at 100 µg/mL [2]: < 1.3
- fold induction at 10 µg/mL [3]: 3
- fold induction at 50 µg/mL [3]: < 1.3
- fold induction at 100 µg/mL [3]: < 1.3
- Rating (Collagen 1A) [3]: ****, ****, **** (very high activity (>76%))
- fold induction at 10 µg/mL [4]: 2
- fold induction at 50 µg/mL [4]: 1.5
- fold induction at 100 µg/mL [4]: < 1.3
- Rating (ARE) [4]: ****, ****, **** (very high activity (>76%))
- inhibition at 10 µg/mL [5]: ~50%

Structure (SMILES): O=c1c(O)c(-c2ccc(O)cc2)oc2c(O)c(O)cc(O)c12 [HI-12, herbacetin]
- % inhibition of NF-κB ([1]; final dose 10 μg/ml): none
- % inhibition of NF-κB ([1]; final dose 50 μg/ml): none
- inhibition at 100 µg/mL ([1]; final dose 100 μg/ml): 49%
- Rating (inhibition of NF-κB) [1]: none
- fold induction at 10 µg/mL [2]: 2
- fold induction at 50 µg/mL [2]: < 1.3
- fold induction at 100 µg/mL [2]: 2
- fold induction at 10 µg/mL [3]: < 1.3
- fold induction at 50 µg/mL [3]: < 1.3
- fold induction at 100 µg/mL [3]: < 1.3
- Rating (Collagen 1A) [3]: none
- fold induction at 10 µg/mL [4]: < 1.3
- fold induction at 50 µg/mL [4]: < 1.3
- fold induction at 100 µg/mL [4]: < 1.3
- Rating (ARE) [4]: none
- inhibition at 10 µg/mL [5]: ~50%

Structure (SMILES): O=c1c(-c2ccc(O)cc2)coc2cc(O)c(O)cc12 [HI-4, 6,7,4′-trihydroxyisoflavone]
- % inhibition of NF-κB ([1]; final dose 10 μg/ml): none
- % inhibition of NF-κB ([1]; final dose 50 μg/ml): none
- % inhibition of NF-κB ([1]; final dose 100 μg/ml): none
- Rating (inhibition of NF-κB) [1]: none
- fold induction at 10 µg/mL [2]: 2
- fold induction at 50 µg/mL [2]: 2
- fold induction at 100 µg/mL [2]: < 1.3
- fold induction at 10 µg/mL [3]: 2
- fold induction at 50 µg/mL [3]: < 1.3
- fold induction at 100 µg/mL [3]: < 1.3
- Rating (Collagen 1A) [3]: ****, ****, **** (very high activity (>76%))
- fold induction at 10 µg/mL [4]: 2
- fold induction at 50 µg/mL [4]: < 1.3
- fold induction at 100 µg/mL [4]: < 1.3
- Rating (ARE) [4]: ****, ****, **** (very high activity (>76%))
- inhibition at 10 µg/mL [5]: > 70%
